According to the NIST ThermoML archive (doi:10.1016/j.fluid.2006.12.016):

Details: 101.33 kPa, Liquid

CCCCn1cc[n+](C)c1.F[B-](F)(F)F [1-butyl-3-methylimidazolium tetrafluoroborate]
Details | mass density [kg/m3] | viscosity [mPa·s]
293.15 K | 1205.89 | 136.3
294.15 K | 1205.17 | –
295.15 K | 1204.46 | –
296.15 K | 1203.73 | –
297.15 K | 1203 | –
298.15 K | 1202.3 | 103.8
299.15 K | 1201.57 | –
300.15 K | 1200.85 | –
301.15 K | 1200.13 | –
302.15 K | 1199.43 | –
303.15 K | 1198.71 | 80.6
304.15 K | 1198 | –
305.15 K | 1197.28 | –
306.15 K | 1196.58 | –
307.15 K | 1195.85 | –
308.15 K | 1195.16 | 64
309.15 K | 1194.44 | –
310.15 K | 1193.73 | –
311.15 K | 1193.02 | –
312.15 K | 1192.32 | –
313.15 K | 1191.63 | 51.5
314.15 K | 1190.9 | –
315.15 K | 1190.2 | –
316.15 K | 1189.49 | –
317.15 K | 1188.78 | –
318.15 K | 1188.08 | 42.1
319.15 K | 1187.36 | –
320.15 K | 1186.66 | –
321.15 K | 1185.96 | –
322.15 K | 1185.27 | –
323.15 K | 1184.55 | 34.9

CCCCCCCC[n+]1ccn(C)c1.F[B-](F)(F)F [1-methyl-3-octylimidazolium tetrafluoroborate]
Details | mass density [kg/m3] | viscosity [mPa·s]
288.15 K | 1110.37 | 412.3
289.15 K | 1109.66 | –
290.15 K | 1108.98 | –
291.15 K | 1108.29 | –
292.15 K | 1107.6 | –
293.15 K | 1106.92 | 300.9
294.15 K | 1106.24 | –
295.15 K | 1105.55 | –
296.15 K | 1104.87 | –
297.15 K | 1104.18 | –
298.15 K | 1103.51 | 222.8
299.15 K | 1102.82 | –
300.15 K | 1102.13 | –
301.15 K | 1101.45 | –
302.15 K | 1100.77 | –
303.15 K | 1100.09 | 168.9
304.15 K | 1099.41 | –
305.15 K | 1098.73 | –
306.15 K | 1098.05 | –
307.15 K | 1097.35 | –
308.15 K | 1096.69 | 131.2
309.15 K | 1096 | –
310.15 K | 1095.32 | –
311.15 K | 1094.64 | –
312.15 K | 1093.96 | –
313.15 K | 1093.29 | 102.9
314.15 K | 1092.6 | –
315.15 K | 1091.92 | –
316.15 K | 1091.25 | –
317.15 K | 1090.57 | –
318.15 K | 1089.89 | 81.8
319.15 K | 1089.23 | –
320.15 K | 1088.54 | –
321.15 K | 1087.88 | –
322.15 K | 1087.21 | –
323.15 K | 1086.51 | 66.7

CCCCCCn1cc[n+](C)c1.F[B-](F)(F)F [1-hexyl-3-methylimidazolium tetrafluoroborate]
Details | mass density [kg/m3] | viscosity [mPa·s]
288.15 K | 1151.49 | 315.7
289.15 K | 1150.78 | –
290.15 K | 1150.08 | –
291.15 K | 1149.37 | –
292.15 K | 1148.66 | –
293.15 K | 1147.96 | 232.8
294.15 K | 1147.25 | –
295.15 K | 1146.56 | –
296.15 K | 1145.85 | –
297.15 K | 1145.15 | –
298.15 K | 1144.45 | 174.1
299.15 K | 1143.75 | –
300.15 K | 1143.04 | –
301.15 K | 1142.34 | –
302.15 K | 1141.65 | –
303.15 K | 1140.96 | 132.1
304.15 K | 1140.25 | –
305.15 K | 1139.56 | –
306.15 K | 1138.87 | –
307.15 K | 1138.16 | –
308.15 K | 1137.48 | 103
309.15 K | 1136.77 | –
310.15 K | 1136.08 | –
311.15 K | 1135.39 | –
312.15 K | 1134.7 | –
313.15 K | 1134.03 | 81.7
314.15 K | 1133.33 | –
315.15 K | 1132.64 | –
316.15 K | 1131.95 | –
317.15 K | 1131.28 | –
318.15 K | 1130.59 | 65.9
319.15 K | 1129.9 | –
320.15 K | 1129.22 | –
321.15 K | 1128.53 | –
322.15 K | 1127.87 | –
323.15 K | 1127.17 | 53.9
